From ChEMBL document CHEMBL1201862, “PubChem BioAssay data set” (2004)
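Protocol summary: plate cells (96-well), add compound at 5 concentrations, incubate 48 h, interpolate endpoints linearly. GI50 marks 50% less growth.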 The source made the active and inactive calls. Cut-off read from the data, not from the text of the source: active = GI50 up to about 1.1 µM and inactive = higher.

How the values were obtained:
Assay in all cases: NCI-60 cell line screen, 48 h
786-0 = tested on: 786-0
A498 = tested on: A498
A549 = tested on: A549
ACHN = tested on: ACHN
BT-549 = tested on: BT-549
CAKI-1 = tested on: CAKI-1
CCRF-CEM = tested on: CCRF-CEM
COLO 205 = tested on: COLO 205
DMS-114 = tested on: DMS-114
DMS-273 = tested on: DMS-273
DU-145 = tested on: DU-145
EKVX = tested on: EKVX
HCC 2998 = tested on: HCC 2998
HCT-116 = tested on: HCT-116
HCT-15 = tested on: HCT-15
HL-60 = tested on: HL-60
HOP-62 = tested on: HOP-62
HT-29 = tested on: HT-29
Hs-578T = tested on: Hs-578T
IGROV-1 = tested on: IGROV-1
K562 = tested on: K562
KM-20L2 = tested on: KM-20L2
KM12 = tested on: KM12
LOX IMVI = tested on: LOX IMVI
M14 = tested on: M14
M19-MEL = tested on: M19-MEL
MCF7 = tested on: MCF7
MDA-MB-231 = tested on: MDA-MB-231
MDA-MB-435 = tested on: MDA-MB-435
MDA-N = tested on: MDA-N
MOLT-4 = tested on: MOLT-4
NCI-H226 = tested on: NCI-H226
NCI-H23 = tested on: NCI-H23
NCI-H460 = tested on: NCI-H460
NCI-H522 = tested on: NCI-H522
NCI/ADR-RES = tested on: NCI/ADR-RES
OVCAR-3 = tested on: OVCAR-3
OVCAR-4 = tested on: OVCAR-4
OVCAR-5 = tested on: OVCAR-5
OVCAR-8 = tested on: OVCAR-8
PC-3 = tested on: PC-3
RPMI-8226 = tested on: RPMI-8226
RXF 393 = tested on: RXF 393
SF-268 = tested on: SF-268
SF-295 = tested on: SF-295
SF-539 = tested on: SF-539
SK-MEL-28 = tested on: SK-MEL-28
SK-MEL-2 = tested on: SK-MEL-2
SK-OV-3 = tested on: SK-OV-3
SN12C = tested on: SN12C
SNB-19 = tested on: SNB-19
SNB-75 = tested on: SNB-75
SR = tested on: SR
SW-620 = tested on: SW-620
T47D = tested on: T47D
TK-10 = tested on: TK-10
U-251 = tested on: U-251
UACC-257 = tested on: UACC-257
UACC-62 = tested on: UACC-62
UO-31 = tested on: UO-31
HOP-92 = tested on: HOP-92
Malme-3M = tested on: Malme-3M
SK-MEL-5 = tested on: SK-MEL-5

SMILES: CC(=O)O[C@@]12CO[C@@H]1C[C@@H](O)[C@@]1(C)C(=O)[C@H](O)C3=C(C)[C@@H](OC(=O)[C@H](O)[C@@H](NC(=O)c4ccccc4)c4ccccc4)C[C@@](O)([C@@H](OC(=O)c4ccccc4)C12)C3(C)C (some centres undefined)
- GI50 (786-0): 62.8 nM (active)
- GI50 (A498): 213 nM (active)
- GI50 (A549): 83 nM (active)
- GI50 (ACHN): 2770 nM (inactive)
- GI50 (BT-549): 24.3 nM (active)
- GI50 (CAKI-1): 1820 nM (inactive)
- GI50 (CCRF-CEM): 10.3 nM (active)
- GI50 (COLO 205): < 10 nM (active)
- GI50 (DMS-114): < 10 nM (active)
- GI50 (DMS-273): < 10 nM (active)
- GI50 (DU-145): 30.1 nM (active)
- GI50 (EKVX): 4810 nM (inactive)
- GI50 (HCC 2998): 21.2 nM (active)
- GI50 (HCT-116): < 10 nM (active)
- GI50 (HCT-15): 3030 nM
- GI50 (HL-60): < 10 nM (active)
- GI50 (HOP-62): 89.3 nM (active)
- GI50 (HT-29): < 10 nM (active)
- GI50 (Hs-578T): < 10 nM (active)
- GI50 (IGROV-1): 21.8 nM (active)
- GI50 (K562): 15.6 nM (active)
- GI50 (KM-20L2): 13.4 nM (active)
- GI50 (KM12): < 10 nM (active)
- GI50 (LOX IMVI): < 30.3 nM (active)
- GI50 (M14): 36.3 nM (active)
- GI50 (M19-MEL): < 10 nM (active)
- GI50 (MCF7): < 10 nM (active)
- GI50 (MDA-MB-231): 40.8 nM (active)
- GI50 (MDA-MB-435): < 10 nM (active)
- GI50 (MDA-N): < 10 nM (active)
- GI50 (MOLT-4): < 10 nM (active)
- GI50 (NCI-H226): 17400 nM (inactive)
- GI50 (NCI-H23): 37.9 nM (active)
- GI50 (NCI-H460): 21.7 nM (active)
- GI50 (NCI-H522): < 12.2 nM (active)
- GI50 (NCI/ADR-RES): 20800 nM (inactive)
- GI50 (OVCAR-3): < 16.2 nM (active)
- GI50 (OVCAR-4): 24700 nM (inactive)
- GI50 (OVCAR-5): 83.2 nM (active)
- GI50 (OVCAR-8): 80.3 nM (active)
- GI50 (PC-3): 16 nM (active)
- GI50 (RPMI-8226): < 10 nM (active)
- GI50 (RXF 393): 222 nM (active)
- GI50 (SF-268): 59.4 nM (active)
- GI50 (SF-295): 268 nM (active)
- GI50 (SF-539): < 11.4 nM (active)
- GI50 (SK-MEL-28): 748 nM (active)
- GI50 (SK-MEL-2): < 10 nM (active)
- GI50 (SK-OV-3): 26 nM (active)
- GI50 (SN12C): 18.4 nM (active)
- GI50 (SNB-19): 185 nM (active)
- GI50 (SNB-75): < 10 nM (active)
- GI50 (SR): 43.8 nM (active)
- GI50 (SW-620): < 10 nM (active)
- GI50 (T47D): 27.2 nM (active)
- GI50 (TK-10): 705 nM (active)
- GI50 (U-251): 141 nM (active)
- GI50 (UACC-257): 21.7 nM (active)
- GI50 (UACC-62): < 10 nM (active)
- GI50 (UO-31): 4510 nM (inactive)

SMILES: CC(=O)OC1C(C)OC(OC2C[C@](O)(C(C)=O)Cc3c(O)c4c(c(O)c32)C(=O)c2ccccc2C4=O)C(F)C1OC(C)=O (some centres undefined)
- GI50 (786-0): 287 nM (active)
- GI50 (A498): 791 nM (active)
- GI50 (A549): 154 nM (active)
- GI50 (ACHN): 114 nM (active)
- GI50 (BT-549): 1040 nM (active)
- GI50 (CAKI-1): 130 nM (active)
- GI50 (CCRF-CEM): 197 nM (active)
- GI50 (COLO 205): 1980 nM (inactive)
- GI50 (DU-145): 230 nM (active)
- GI50 (EKVX): 3680 nM (inactive)
- GI50 (HCC 2998): 1910 nM (inactive)
- GI50 (HCT-116): 318 nM (active)
- GI50 (HCT-15): 358 nM
- GI50 (HL-60): 154 nM (active)
- GI50 (HOP-62): 367 nM (active)
- GI50 (HOP-92): 457 nM (active)
- GI50 (HT-29): 1420 nM (inactive)
- GI50 (Hs-578T): 476 nM (active)
- GI50 (IGROV-1): 243 nM (active)
- GI50 (K562): 1630 nM (inactive)
- GI50 (KM12): 1850 nM (inactive)
- GI50 (LOX IMVI): 156 nM (active)
- GI50 (M14): 735 nM (active)
- GI50 (MCF7): 47.4 nM (active)
- GI50 (MDA-MB-231): 1060 nM (active)
- GI50 (MDA-MB-435): 2250 nM (inactive)
- GI50 (MDA-N): 1880 nM (inactive)
- GI50 (MOLT-4): < 14.2 nM (active)
- GI50 (Malme-3M): 1140 nM (inactive)
- GI50 (NCI-H226): 335 nM (active)
- GI50 (NCI-H23): 245 nM (active)
- GI50 (NCI-H460): 35.3 nM (active)
- GI50 (NCI-H522): 610 nM (active)
- GI50 (NCI/ADR-RES): 1450 nM (inactive)
- GI50 (OVCAR-3): 2520 nM (inactive)
- GI50 (OVCAR-4): 3740 nM (inactive)
- GI50 (OVCAR-5): 916 nM (active)
- GI50 (OVCAR-8): 543 nM (active)
- GI50 (PC-3): 971 nM (active)
- GI50 (RPMI-8226): 175 nM (active)
- GI50 (RXF 393): 2740 nM (inactive)
- GI50 (SF-268): 541 nM (active)
- GI50 (SF-295): 130 nM (active)
- GI50 (SF-539): 194 nM (active)
- GI50 (SK-MEL-28): 3400 nM (inactive)
- GI50 (SK-MEL-2): 3110 nM (inactive)
- GI50 (SK-MEL-5): 408 nM (active)
- GI50 (SK-OV-3): 617 nM (active)
- GI50 (SN12C): 281 nM (active)
- GI50 (SNB-19): 245 nM (active)
- GI50 (SNB-75): 417 nM (active)
- GI50 (SR): 101 nM (active)
- GI50 (SW-620): 495 nM (active)
- GI50 (T47D): 522 nM (active)
- GI50 (TK-10): 1600 nM (inactive)
- GI50 (U-251): 238 nM (active)
- GI50 (UACC-257): 1800 nM (inactive)
- GI50 (UACC-62): 387 nM (active)
- GI50 (UO-31): 115 nM (active)
